For 16 molecules, IC50 results are on record in patent US20230022157A1 (Achillion Pharmaceuticals, Inc., priority 2018, published 2023).

As a reminder, the IC50 is the point on the concentration scale where inhibition reaches its midpoint.

Like-named read-outs stand apart in the source and are kept apart here.

The experiment addresses T1, Human Factor D (Homo sapiens, UniProt P00746).
T1 construct: purified from human serum; purchased Complement Technology, Inc; host or cells: human serum (natural protein, not recombinant)
Put plainly: Human Factor D Assay. In kind it is biochemical. Conditions: Human Factor D 80 nM, substrate Z-L-Lys-SBzl, read-out: IC50 (Stars). A digest of the protocol:
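Serum-purified human factor D (80 nM final) preincubated 5 min at room temperature with test compound in 50 mM Tris, 1M NaCl, pH 7.5. Z-L-Lys-SBzl substrate and DTNB then added, each at 100 μM final. IC50 from nonlinear regression of reaction rate against compound concentration.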

T1 sequence (P00746 26-253): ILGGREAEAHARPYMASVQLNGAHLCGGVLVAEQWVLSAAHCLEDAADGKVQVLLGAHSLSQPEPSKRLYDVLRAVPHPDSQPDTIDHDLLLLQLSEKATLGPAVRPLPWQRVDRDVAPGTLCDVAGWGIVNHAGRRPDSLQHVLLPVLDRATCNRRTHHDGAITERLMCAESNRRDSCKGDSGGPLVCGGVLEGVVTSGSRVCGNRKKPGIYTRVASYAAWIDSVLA

Consider `COC(C)(C)CNC(=O)[C@@H]1C[C@@]2(C)C[C@H]2N1C(=O)Cn1nc(C(C)=O)c2cc(-c3cnc(C)nc3)cc(C)c21` [Compound 87, (1R,3S,5R)-2-{2-[3-acetyl-7-methyl-5-(2-methylpyrimidin-5-yl)indazol-1-yl]acetyl}-N-(2-methoxy-2-methylpropyl)-5-methyl-2-azabicyclo[3.1.0]hexane-3-carboxamide], for which the half-inhibitory concentration (IC50) (Table 2) is under 1 µM.

On to `COc1cc(Br)nc(NC(=O)[C@@H]2C[C@@]3(C)C[C@H]3N2C(=O)Cn2nc(C(N)=O)c3cc(-c4cnc(C)nc4)nc(C)c32)c1` [Compound 113, 1-(2-((1R,3S,5R)-3-((6-bromo-4-methoxypyridin-2-yl)carbamoyl)-5-methyl-2-azabicyclo[3.1.0]hexan-2-yl)-2-oxoethyl)-7-methyl-5-(2-methylpyrimidin-5-yl)-1H-pyrazolo[3,4-c]pyridine-3-carboxamide], for which, where the note is “Table 2”, the 50% inhibitory concentration (IC50) is under 1 µM.

As to `CCCC(C)(C)CNC(=O)[C@@H]1C[C@@]2(C)C[C@H]2N1C(=O)Cn1nc(C(C)=O)c2cc(-c3cnc(C)nc3)cc(C)c21` [Compound 116, (1R,3S,5R)-2-{2-[3-acetyl-7-methyl-5-(2-methylpyrimidin-5-yl)indazol-1-yl]acetyl}-N-(2,2-dimethylpentyl)-5-methyl-2-azabicyclo[3.1.0]hexane-3-carboxamide], the IC50 (Table 2) is under 1 µM.

Consider `CC(=O)c1nn(CC(=O)N2[C@H](C(=O)Nc3nc(Br)ccc3C)C[C@@]3(C)C[C@@H]23)c2c(C)cc(-c3cnc(CF)nc3)cc12` [Compound 208, (1R,3S,5R)-2-(2-(3-acetyl-5-(2-(fluoromethyl)pyrimidin-5-yl)-7-methyl-1H-indazol-1-yl)acetyl)-N-(6-bromo-3-methylpyridin-2-yl)-5-methyl-2-azabicyclo[3.1.0]hexane-3-carboxamide], for which the IC50 (Table 2) is under 1 µM.

With `CC(=O)c1nn(CC(=O)N2C[C@H]3C[C@H]3[C@H]2C(=O)Nc2nc(Br)ccc2C)c2ccc(-c3cnc(CO)nc3)cc12` [Compound 63, (1R,2S,5S)-3-(2-(3-acetyl-5-(2-(hydroxymethyl)pyrimidin-5-yl)-1H-indazol-1-yl)acetyl)-N-(6-bromo-3-methylpyridin-2-yl)-3-azabicyclo[3.1.0]hexane-2-carboxamide], the 50% inhibitory concentration (IC50) (Table 2) is under 1 µM.

Take `CC(=O)c1nn(CC(=O)N2[C@H](C(=O)NCc3ccc4c(c3)CCCC4)C[C@@]3(C)C[C@@H]23)c2c(C)cc(-c3cnc(C)nc3)cc12` [Compound 150, (1R,3S,5R)-2-{2-[3-acetyl-7-methyl-5-(2-methylpyrimidin-5-yl)indazol-1-yl]acetyl}-5-methyl-N-(5,6,7,8-tetrahydronaphthalen-2-ylmethyl)-2-azabicyclo[3.1.0]hexane-3-carboxamide]: the IC50 (Table 2) was under 1 µM.

With `CC(=O)c1cn(CC(=O)N2[C@H](C(=O)Nc3nc(C(F)(F)F)ccc3C)C[C@@]3(C)C[C@@H]23)c2c(C)cc(-c3cnc4cc(C5CC5)nn4c3)cc12` [Compound 196, (1R,3S,5R)-2-(2-(3-acetyl-5-(2-cyclopropylpyrazolo[1,5-a]pyrimidin-6-yl)-7-methyl-1H-indol-1-yl)acetyl)-5-methyl-N-(3-methyl-6-(trifluoromethyl)pyridin-2-yl)-2-azabicyclo[3.1.0]hexane-3-carboxamide], for the setting “Table 2”, the IC50 is under 1 µM.

`CC(=O)c1cn(CC(=O)N2[C@H]3CC[C@H](C3)[C@H]2C(=O)Nc2nc(C(F)(F)F)ccc2C)c2c(C)cc(-c3cnc(C)nc3)cc12` [Compound 177, (1S,3S,4R)-2-(2-(3-acetyl-7-methyl-5-(2-methylpyrimidin-5-yl)-1H-indol-1-yl)acetyl)-N-(3-methyl-6-(trifluoromethyl)pyridin-2-yl)-2-azabicyclo[2.2.1]heptane-3-carboxamide]: where the note is “Table 2”, the IC50 was under 1 µM.

Turning to `CC(=O)c1nn(CC(=O)N2[C@H](C(=O)NCCc3ccn(C)n3)C[C@@]3(C)C[C@@H]23)c2c(C)cc(-c3cnc(C)nc3)cc12` [Compound 103, (1R,3S,5R)-2-{2-[3-acetyl-7-methyl-5-(2-methylpyrimidin-5-yl)indazol-1-yl]acetyl}-5-methyl-N-[2-(1-methylpyrazol-3-yl)ethyl]-2-azabicyclo[3.1.0]hexane-3-carboxamide], for the setting “Table 2”, the IC50 is under 1 µM.

On to `CC(=O)c1cn(CC(=O)N2[C@H](C(=O)Nc3nc(Br)c(F)cc3C)C[C@@]3(C)C[C@@H]23)c2ccc(-c3cnc4cc(C)nn4c3)cc12` [Compound 211, (1R,3S,5R)-2-(2-(3-acetyl-5-(2-methylpyrazolo[1,5-a]pyrimidin-6-yl)-1H-indol-1-yl)acetyl)-N-(6-bromo-5-fluoro-3-methylpyridin-2-yl)-5-methyl-2-azabicyclo[3.1.0]hexane-3-carboxamide], for which the IC50 (Table 2) was under 1 µM.

In the case of `COC(=O)C1(c2cncc(-c3ccc4c(c3)c(C(C)=O)nn4CC(=O)N3[C@H](C(=O)Nc4nc(Br)ccc4C)C[C@@]4(C)C[C@@H]34)c2)CC1` [Compound 97, Methyl 1-(5-(3-acetyl-1-(2-((1R,3S,5R)-3-((6-bromo-3-methylpyridin-2-yl)carbamoyl)-5-methyl-2-azabicyclo[3.1.0]hexan-2-yl)-2-oxoethyl)-1H-indazol-5-yl)pyridin-3-yl)cyclopropane-1-carboxylate], under “Table 2”, the IC50 is under 1 µM.

On to `CC(=O)c1nn(CC(=O)N2[C@H](C(=O)NCCC3(C)OCCO3)C[C@@]3(C)C[C@@H]23)c2c(C)cc(-c3cnc(C)nc3)cc12` [Compound 145, (1R,3S,5R)-2-{2-[3-acetyl-7-methyl-5-(2-methylpyrimidin-5-yl)indazol-1-yl]acetyl}-5-methyl-N-[2-(2-methyl-1,3-dioxolan-2-yl)ethyl]-2-azabicyclo[3.1.0]hexane-3-carboxamide], for which, where the note is “Table 2”, the IC50 is under 1 µM.

As for `CC(=O)c1nn(CC(=O)N2[C@H](C(=O)N[C@@H](C)CC(C)C)C[C@@]3(C)C[C@@H]23)c2ccc(-c3cnc(C)nc3)cc12` [Compound 10, (1R,3S,5R)-2-(2-(3-Acetyl-5-(2-methylpyrimidin-5-yl)-1H-indazol-1-yl)acetyl)-5-methyl-N—((S)-4-methylpentan-2-yl)-2-azabicyclo[3.1.0]hexane-3-carboxamide], the 50% inhibitory concentration (IC50) (assay of Example 3) was under 1 µM.

Turning to `CC(=O)c1nn(CC(=O)N2[C@H](C(=O)N[C@H](C)CCc3ccccc3)C[C@@]3(C)C[C@@H]23)c2ccc(-c3cnc(C)nc3)cc12` [Compound 13, (1R,3S,5R)-2-(2-(3-Acetyl-5-(2-methylpyrimidin-5-yl)-1H-indazol-1-yl)acetyl)-5-methyl-N—((R)-4-phenylbutan-2-yl)-2-azabicyclo[3.1.0]hexane-3-carboxamide], the 50% inhibitory concentration (IC50) (assay of Example 3) is under 1 µM.

For the molecule `CC(=O)c1nn(CC(=O)N2[C@H](C(=O)Nc3nc(Br)ccc3C)C[C@@]3(C)C[C@@H]23)c2c(C)cc(-c3cnc(C#N)nc3)cc12` [Compound 57, (1R,3S,5R)-2-(2-(3-acetyl-5-(2-cyanopyrimidin-5-yl)-7-methyl-1H-indazol-1-yl)acetyl)-N-(6-bromo-3-methylpyridin-2-yl)-5-methyl-2-azabicyclo[3.1.0]hexane-3-carboxamide], the IC50 (Table 2) is under 1 µM.

Take `CC(=O)c1nn(CC(=O)N2C[C@H]3C[C@H]3[C@H]2C(=O)Nc2nc(Br)ccc2Cl)c2c(C)cc(-c3cnc(CO)nc3)cc12` [Compound 75, (1R,2S,5S)-3-(2-(3-acetyl-5-(2-(hydroxymethyl)pyrimidin-5-yl)-7-methyl-11H-indazol-1-yl)acetyl)-N-(6-bromo-3-chloropyridin-2-yl)-3-azabicyclo[3.1.0]hexane-2-carboxamide]: the IC50 (Table 2) was under 1 µM.
